Test system: Key Broadleaf Weed and Crop Species
Test: Post-emergent Test II herbicidal activity (Table 5)
Assay type: in vivo
Settings: post-emergence, 336 h; ABUTH: velvetleaf (Abutilon theophrasti); 70 g ai/ha; post-emergent; 14 days after application; read-out: Visual Growth Reduction (%) 14 Days After Application ABUTH
Outline: (§1)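 Visual injury ratings (0 = no injury, 100 = complete kill) were taken 14 d after treatment, relative to untreated plants. Seedlings at the first–second true leaf stage received overhead spray at 187 L/ha; the highest rate was serially diluted to ½×, ¼×, ⅛× and 1/16×.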
Work on `COc1c(N)nc(-c2cc(F)c(I)cc2F)nc1C(=O)O` [Compound 119] yielded a pest or weed control at 70 g/ha of 75 to 84%.

Same assay, conditions: post-emergence, 336 h; ABUTH: velvetleaf (Abutilon theophrasti); 140 g ai/ha; post-emergent; 14 days after application; read-out: Visual Growth Reduction (%) 14 Days After Application ABUTH
`COc1c(N)nc(-c2cc(F)c(I)cc2F)nc1C(=O)O` [Compound 119] showed a pest or weed control at 140 g/ha of 85 to 94%.

Same assay, conditions: post-emergence, 336 h; AMARE: redroot pigweed (Amaranthus retroflexus); 70 g ai/ha; post-emergent; 14 days after application; read-out: Visual Growth Reduction (%) 14 Days After Application AMARE
In the case of `COc1c(N)nc(-c2cc(F)c(I)cc2F)nc1C(=O)O` [Compound 119], the pest or weed control at 70 g/ha is reported as 85 to 94%.

Same assay, conditions: post-emergence, 336 h; AMARE: redroot pigweed (Amaranthus retroflexus); 140 g ai/ha; post-emergent; 14 days after application; read-out: Visual Growth Reduction (%) 14 Days After Application AMARE
Compound `COc1c(N)nc(-c2cc(F)c(I)cc2F)nc1C(=O)O` [Compound 119] has a pest or weed control at 140 g/ha of 95 to 100%.

Same assay, conditions: post-emergence, 336 h; BRSNN: oilseed-rape, canola (Brassica napus); 70 g ai/ha; post-emergent; 14 days after application; read-out: Visual Growth Reduction (%) 14 Days After Application BRSNN
Compound `COc1c(N)nc(-c2cc(F)c(I)cc2F)nc1C(=O)O` [Compound 119] has a pest or weed control at 70 g/ha of 95 to 100%.

Same assay, conditions: post-emergence, 336 h; BRSNN: oilseed-rape, canola (Brassica napus); 140 g ai/ha; post-emergent; 14 days after application; read-out: Visual Growth Reduction (%) 14 Days After Application BRSNN
For `COc1c(N)nc(-c2cc(F)c(I)cc2F)nc1C(=O)O` [Compound 119], the pest or weed control at 140 g/ha was 95 to 100%.

Same assay, conditions: post-emergence, 336 h; CHEAL: lambsquarters (Chenopodium album); 70 g ai/ha; post-emergent; 14 days after application; read-out: Visual Growth Reduction (%) 14 Days After Application CHEAL
For `COc1c(N)nc(-c2cc(F)c(I)cc2F)nc1C(=O)O` [Compound 119], the pest or weed control at 70 g/ha was 95 to 100%.

Same assay, conditions: post-emergence, 336 h; CHEAL: lambsquarters (Chenopodium album); 140 g ai/ha; post-emergent; 14 days after application; read-out: Visual Growth Reduction (%) 14 Days After Application CHEAL
For `COc1c(N)nc(-c2cc(F)c(I)cc2F)nc1C(=O)O` [Compound 119], the pest or weed control at 140 g/ha was 95 to 100%.

Same assay, conditions: post-emergence, 336 h; EPHHL: wild poinsettia (Euphorbia heterophylla); 70 g ai/ha; post-emergent; 14 days after application; read-out: Visual Growth Reduction (%) 14 Days After Application EPHHL
`COc1c(N)nc(-c2cc(F)c(I)cc2F)nc1C(=O)O` [Compound 119] gave a pest or weed control at 70 g/ha of 95 to 100%.

Same assay, conditions: post-emergence, 336 h; EPHHL: wild poinsettia (Euphorbia heterophylla); 140 g ai/ha; post-emergent; 14 days after application; read-out: Visual Growth Reduction (%) 14 Days After Application EPHHL
`COc1c(N)nc(-c2cc(F)c(I)cc2F)nc1C(=O)O` [Compound 119] showed a pest or weed control at 140 g/ha of 95 to 100%.

Same assay, conditions: post-emergence, 336 h; HELAN: sunflower (Helianthus annuus); 70 g ai/ha; post-emergent; 14 days after application; read-out: Visual Growth Reduction (%) 14 Days After Application HELAN
With `COc1c(N)nc(-c2cc(F)c(I)cc2F)nc1C(=O)O` [Compound 119] the pest or weed control at 70 g/ha was 85 to 94%.

Same assay, conditions: post-emergence, 336 h; HELAN: sunflower (Helianthus annuus); 140 g ai/ha; post-emergent; 14 days after application; read-out: Visual Growth Reduction (%) 14 Days After Application HELAN
For `COc1c(N)nc(-c2cc(F)c(I)cc2F)nc1C(=O)O` [Compound 119], the pest or weed control at 140 g/ha was 85 to 94%.

Same assay, conditions: post-emergence, 336 h; VIOTR: wild pansy (Viola tricolor); 70 g ai/ha; post-emergent; 14 days after application; read-out: Visual Growth Reduction (%) 14 Days After Application VIOTR
With `COc1c(N)nc(-c2cc(F)c(I)cc2F)nc1C(=O)O` [Compound 119] the pest or weed control at 70 g/ha was 0 to 29%.

Same assay, conditions: post-emergence, 336 h; VIOTR: wild pansy (Viola tricolor); 140 g ai/ha; post-emergent; 14 days after application; read-out: Visual Growth Reduction (%) 14 Days After Application VIOTR
Work on `COc1c(N)nc(-c2cc(F)c(I)cc2F)nc1C(=O)O` [Compound 119] yielded a pest or weed control at 140 g/ha of 0 to 29%.

Test system: Key Grass and Sedge Weeds as well as Grass Crops
Test: Post-emergent Test II herbicidal activity (Table 6)
Assay type: in vivo
Settings: Triticum aestivum, post-emergence, 336 h, TRZSS (wheat), application rate 70 g ai/ha, read-out: Visual Growth Reduction (%) 14 Days After Application, TRZSS
Outline: as §1
For `COc1c(N)nc(-c2cc(F)c(I)cc2F)nc1C(=O)O` [Compound 119], the pest or weed control at 70 g/ha was 45 to 59%.

Same assay, conditions: Triticum aestivum, post-emergence, 336 h, TRZSS (wheat), application rate 140 g ai/ha, read-out: Visual Growth Reduction (%) 14 Days After Application, TRZSS
`COc1c(N)nc(-c2cc(F)c(I)cc2F)nc1C(=O)O` [Compound 119] gave a pest or weed control at 140 g/ha of 60 to 74%.

Same assay, conditions: post-emergence, 336 h, CYPES: yellow nutsedge (Cyperus esculentus), application rate 70 g ai/ha, read-out: Visual Growth Reduction (%) 14 Days After Application, CYPES
`COc1c(N)nc(-c2cc(F)c(I)cc2F)nc1C(=O)O` [Compound 119] showed a pest or weed control at 70 g/ha of 45 to 59%.

Same assay, conditions: post-emergence, 336 h, CYPES: yellow nutsedge (Cyperus esculentus), application rate 140 g ai/ha, read-out: Visual Growth Reduction (%) 14 Days After Application, CYPES
Work on `COc1c(N)nc(-c2cc(F)c(I)cc2F)nc1C(=O)O` [Compound 119] yielded a pest or weed control at 140 g/ha of 45 to 59%.

Same assay, conditions: post-emergence, 336 h, DIGSA: crabgrass (Digitaria sanguinalis), application rate 70 g ai/ha, read-out: Visual Growth Reduction (%) 14 Days After Application, DIGSA
Work on `COc1c(N)nc(-c2cc(F)c(I)cc2F)nc1C(=O)O` [Compound 119] yielded a pest or weed control at 70 g/ha of 45 to 59%.

Same assay, conditions: post-emergence, 336 h, DIGSA: crabgrass (Digitaria sanguinalis), application rate 140 g ai/ha, read-out: Visual Growth Reduction (%) 14 Days After Application, DIGSA
Compound `COc1c(N)nc(-c2cc(F)c(I)cc2F)nc1C(=O)O` [Compound 119] has a pest or weed control at 140 g/ha of 60 to 74%.

Same assay, conditions: post-emergence, 336 h, ECHCG: barnyardgrass (Echinochloa crus-galli), application rate 70 g ai/ha, read-out: Visual Growth Reduction (%) 14 Days After Application, ECHCG
`COc1c(N)nc(-c2cc(F)c(I)cc2F)nc1C(=O)O` [Compound 119] gave a pest or weed control at 70 g/ha of 85 to 94%.

Same assay, conditions: post-emergence, 336 h, ECHCG: barnyardgrass (Echinochloa crus-galli), application rate 140 g ai/ha, read-out: Visual Growth Reduction (%) 14 Days After Application, ECHCG
`COc1c(N)nc(-c2cc(F)c(I)cc2F)nc1C(=O)O` [Compound 119] showed a pest or weed control at 140 g/ha of 85 to 94%.

Same assay, conditions: post-emergence, 336 h, ORYSA: rice (Oryza sativa), application rate 70 g ai/ha, read-out: Visual Growth Reduction (%) 14 Days After Application, ORYSA
Compound `COc1c(N)nc(-c2cc(F)c(I)cc2F)nc1C(=O)O` [Compound 119] has a pest or weed control at 70 g/ha of 0 to 29%.

Same assay, conditions: post-emergence, 336 h, ORYSA: rice (Oryza sativa), application rate 140 g ai/ha, read-out: Visual Growth Reduction (%) 14 Days After Application, ORYSA
`COc1c(N)nc(-c2cc(F)c(I)cc2F)nc1C(=O)O` [Compound 119] gave a pest or weed control at 140 g/ha of 0 to 29%.

Same assay, conditions: post-emergence, 336 h, SETFA: giant foxtail (Setaria faberi), application rate 70 g ai/ha, read-out: Visual Growth Reduction (%) 14 Days After Application, SETFA
`COc1c(N)nc(-c2cc(F)c(I)cc2F)nc1C(=O)O` [Compound 119] showed a pest or weed control at 70 g/ha of 60 to 74%.

Same assay, conditions: post-emergence, 336 h, SETFA: giant foxtail (Setaria faberi), application rate 140 g ai/ha, read-out: Visual Growth Reduction (%) 14 Days After Application, SETFA
Compound `COc1c(N)nc(-c2cc(F)c(I)cc2F)nc1C(=O)O` [Compound 119] has a pest or weed control at 140 g/ha of 60 to 74%.

Same assay, conditions: post-emergence, 336 h, SORVU: grain sorghum (Sorghum vulgare), application rate 70 g ai/ha, read-out: Visual Growth Reduction (%) 14 Days After Application, SORVU
For `COc1c(N)nc(-c2cc(F)c(I)cc2F)nc1C(=O)O` [Compound 119], the pest or weed control at 70 g/ha was 60 to 74%.

Same assay, conditions: post-emergence, 336 h, SORVU: grain sorghum (Sorghum vulgare), application rate 140 g ai/ha, read-out: Visual Growth Reduction (%) 14 Days After Application, SORVU
Work on `COc1c(N)nc(-c2cc(F)c(I)cc2F)nc1C(=O)O` [Compound 119] yielded a pest or weed control at 140 g/ha of 60 to 74%.

Same assay, conditions: post-emergence, 336 h, ZEAMX: maize, corn (Zea mays), application rate 70 g ai/ha, read-out: Visual Growth Reduction (%) 14 Days After Application, ZEAMX
With `COc1c(N)nc(-c2cc(F)c(I)cc2F)nc1C(=O)O` [Compound 119] the pest or weed control at 70 g/ha was 60 to 74%.

Same assay, conditions: post-emergence, 336 h, ZEAMX: maize, corn (Zea mays), application rate 140 g ai/ha, read-out: Visual Growth Reduction (%) 14 Days After Application, ZEAMX
Compound `COc1c(N)nc(-c2cc(F)c(I)cc2F)nc1C(=O)O` [Compound 119] has a pest or weed control at 140 g/ha of 60 to 74%.

Test system: not given
Test: not given
Settings: not given
Compound `COc1c(N)nc(-c2cc(F)c(I)cc2F)nc1C(=O)O` [Compound 119] has a melting point of 131 to 132 °C.

Source: patent US9113629B2, “4-amino-6-(4-substituted-phenyl)-picolinates and 6-amino-2-(4-substituted-phenyl)-pyrimidine-4-carboxylates and their use as herbicides” (DOW AGROSCIENCES LLC, priority 2013, dated 2015)
